Three molecules from ChEMBL document CHEMBL5030536, “Subtle Chemical Changes Cross the Boundary between Agonist and Antagonist: New A3 Adenosine Receptor Homology Models and Structural Network Analysis Can Predict This Boundary” (J Med Chem, 2021) can be followed below.

One experiment has as its target T1, Adenosine receptor A1 (Homo sapiens, UniProt P30542).
T1 sequence (P30542 whole entry): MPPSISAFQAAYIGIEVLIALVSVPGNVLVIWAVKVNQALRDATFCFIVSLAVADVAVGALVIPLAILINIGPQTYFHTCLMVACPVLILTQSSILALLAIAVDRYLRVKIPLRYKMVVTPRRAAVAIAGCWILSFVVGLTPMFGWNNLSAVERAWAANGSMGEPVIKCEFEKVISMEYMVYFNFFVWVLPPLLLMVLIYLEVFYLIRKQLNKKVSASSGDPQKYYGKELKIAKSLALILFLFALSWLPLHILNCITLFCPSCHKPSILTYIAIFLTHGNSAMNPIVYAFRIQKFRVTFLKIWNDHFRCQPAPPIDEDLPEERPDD
Briefly: Displacement of [3H]R-PIA from recombinant human A1 adenosine receptor expressed in CHO cell membrane incubated for 60 mins by liquid scintillation counting method. It is filed as cell membranes. On the technique in general: Loss of bound radioactivity is the signal in a displacement assay; it reports binding, not function.

Another experiment has as its target T2, Adenosine receptor A3 (Homo sapiens, UniProt P0DMS8).
T2 sequence (P0DMS8 whole entry): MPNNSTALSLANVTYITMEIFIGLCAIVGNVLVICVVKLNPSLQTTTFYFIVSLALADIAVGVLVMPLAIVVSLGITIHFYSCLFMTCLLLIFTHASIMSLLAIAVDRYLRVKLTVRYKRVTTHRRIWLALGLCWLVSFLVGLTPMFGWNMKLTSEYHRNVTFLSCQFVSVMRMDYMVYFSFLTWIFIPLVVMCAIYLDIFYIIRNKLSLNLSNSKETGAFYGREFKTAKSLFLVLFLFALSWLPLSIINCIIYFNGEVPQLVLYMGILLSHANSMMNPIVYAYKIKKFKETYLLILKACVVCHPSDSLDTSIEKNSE
Nature of the experiment: Displacement of [125I]AB-MECA from human A3 adenosine receptor expressed in CHO cell membrane incubated for 60 mins by gamma counter method. Format: cell membranes.

A further experiment has as its target Adenosine receptor A2a (Homo sapiens, UniProt P29274). Briefly: Displacement of [3H]CGS21680 from recombinant human A2A adenosine receptor expressed in HEK293 cells incubated for 60 mins by liquid scintillation counting method. It is filed as cell-based.

For orientation: Ki means a measure of affinity in units of concentration, obtained from inhibition or displacement.

Sequence of Adenosine receptor A2a (P29274 whole entry): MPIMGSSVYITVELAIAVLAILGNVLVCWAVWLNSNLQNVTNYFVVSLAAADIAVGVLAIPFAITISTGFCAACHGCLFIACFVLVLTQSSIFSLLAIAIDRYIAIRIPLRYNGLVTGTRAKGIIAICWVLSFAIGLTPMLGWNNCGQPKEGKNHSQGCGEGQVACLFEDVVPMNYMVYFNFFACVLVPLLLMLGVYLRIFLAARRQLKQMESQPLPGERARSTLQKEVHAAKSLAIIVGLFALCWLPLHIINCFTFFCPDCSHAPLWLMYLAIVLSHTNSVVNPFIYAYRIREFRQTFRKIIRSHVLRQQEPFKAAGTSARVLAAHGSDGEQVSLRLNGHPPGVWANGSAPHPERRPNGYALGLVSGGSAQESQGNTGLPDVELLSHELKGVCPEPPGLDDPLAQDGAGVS

As for `CNc1ncnc2c1ncn2[C@@H]1SC[C@@H](N)[C@H]1O`, the Ki on Adenosine receptor A1 came to 1670 nM.
Turning to `N[C@@H]1CS[C@@H](n2cnc3c(NCc4cccc(I)c4)nc(Cl)nc32)[C@@H]1O`, the figures for the inhibition constant Ki at Adenosine receptor A3, on Adenosine receptor A2a and at Adenosine receptor A1 were 380 nM, 2390 nM and 2200 nM, respectively.
On to `N[C@@H]1CS[C@@H](n2cnc3c(NCc4cccc(I)c4)ncnc32)[C@@H]1O`, for which the Ki on Adenosine receptor A3 was 260 nM; on Adenosine receptor A2a, 2300 nM; on Adenosine receptor A1, 2450 nM.
